Measured values: ChEMBL document CHEMBL1201862, “PubChem BioAssay data set” (2004)
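Following 48 hours of exposure in 96-well plates, responses at five concentrations were used to interpolate endpoints linearly. GI50: concentration for 50% inhibition of growth.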 Active and inactive are the calls of the source. Cut-off read from the data, not from the text of the source: active = GI50 up to about 1.1 µM and inactive = higher.

Key:
Experiment in all cases: NCI anticancer screen, dose series, 48 h
UACC-257 = tested on: UACC-257
EKVX = tested on: EKVX
U-251 = tested on: U-251
SF-295 = tested on: SF-295
SW-620 = tested on: SW-620
SK-MEL-2 = tested on: SK-MEL-2
MDA-MB-231 = tested on: MDA-MB-231
CCRF-CEM = tested on: CCRF-CEM
OVCAR-3 = tested on: OVCAR-3
COLO 205 = tested on: COLO 205
SF-539 = tested on: SF-539
OVCAR-4 = tested on: OVCAR-4
HOP-92 = tested on: HOP-92
A549 = tested on: A549
CAKI-1 = tested on: CAKI-1
ACHN = tested on: ACHN
MDA-N = tested on: MDA-N
BT-549 = tested on: BT-549
A498 = tested on: A498
DMS-273 = tested on: DMS-273

SMILES	GI50 (UACC-257)	GI50 (EKVX)	GI50 (U-251)	GI50 (SF-295)	GI50 (SW-620)	GI50 (SK-MEL-2)	GI50 (MDA-MB-231)	GI50 (CCRF-CEM)	GI50 (OVCAR-3)	GI50 (COLO 205)	GI50 (SF-539)	GI50 (OVCAR-4)	GI50 (HOP-92)	GI50 (A549)	GI50 (CAKI-1)	GI50 (ACHN)	GI50 (MDA-N)	GI50 (BT-549)	GI50 (A498)	GI50 (DMS-273)
O=C1c2cccc([N+](=O)[O-])c2C(=O)N1c1ncn[nH]1	> 100 µM (inactive)	53 µM (inactive)	38.6 µM (inactive)	51.5 µM (inactive)	> 100 µM (inactive)	41.2 µM (inactive)	56.6 µM (inactive)	> 100 µM (inactive)	> 100 µM (inactive)	> 100 µM (inactive)	0.822 µM (active)	> 100 µM (inactive)	21.4 µM (inactive)	> 100 µM (inactive)	> 100 µM (inactive)	> 100 µM (inactive)	> 100 µM (inactive)	28.2 µM (inactive)	53 µM (inactive)	–
CN(CCNCc1cn(C)c2c1ccc1ccccc12)CCNCc1cn(C)c2c1ccc1ccccc12	1.55 µM (inactive)	1.72 µM (inactive)	0.9 µM (active)	1.79 µM (inactive)	1.35 µM (inactive)	1.79 µM (inactive)	1.79 µM (inactive)	0.711 µM (active)	1.84 µM (inactive)	0.948 µM (active)	1.77 µM (inactive)	1.33 µM (inactive)	1.6 µM (inactive)	1.45 µM (inactive)	1.73 µM (inactive)	1.63 µM (inactive)	1.77 µM (inactive)	1.57 µM (inactive)	0.188 µM (active)	–
CC(C)(C)C1CCC2c3c([nH]c4ccccc34)C3C(=O)N(c4ccc(Br)cc4)C(=O)C3C2C1 (stereo not given)	17.8 µM (inactive)	22 µM (inactive)	–	25 µM (inactive)	19.8 µM (inactive)	19 µM (inactive)	–	16.7 µM (inactive)	–	11.1 µM (inactive)	21.1 µM (inactive)	16.9 µM (inactive)	24.3 µM (inactive)	17.7 µM (inactive)	19.9 µM (inactive)	17.7 µM (inactive)	–	–	28.6 µM (inactive)	17.1 µM (inactive)
C#CCN(N=O)C(=O)NCCCCC(NC(=O)OCc1ccccc1)C(=O)OCc1ccccc1 (stereo not given)	37.2 µM (inactive)	> 100 µM (inactive)	48.9 µM (inactive)	> 100 µM (inactive)	17.4 µM (inactive)	40 µM (inactive)	–	19.3 µM (inactive)	25.5 µM (inactive)	–	16.3 µM (inactive)	> 100 µM (inactive)	20.3 µM (inactive)	–	24 µM (inactive)	61.5 µM (inactive)	–	–	> 100 µM (inactive)	84.3 µM (inactive)
Cc1cc(NS(=O)(=O)c2ccc(NC(=O)c3cccc4c(N)c5ccccc5nc34)cc2)no1	–	90.8 µM (inactive)	26.6 µM (inactive)	23.6 µM (inactive)	30 µM (inactive)	18.7 µM (inactive)	–	21.4 µM (inactive)	21.7 µM (inactive)	22.6 µM (inactive)	21.1 µM (inactive)	27.3 µM (inactive)	–	> 100 µM (inactive)	34.8 µM (inactive)	20 µM (inactive)	–	–	19.4 µM (inactive)	19.2 µM (inactive)
CC1OC(n2cc(Cl)c(=O)[nH]c2=O)C=C(OC(=O)c2ccccc2)C1=O (stereo not given)	> 100 µM (inactive)	> 100 µM (inactive)	> 100 µM (inactive)	> 100 µM (inactive)	> 100 µM (inactive)	> 100 µM (inactive)	–	> 100 µM (inactive)	> 100 µM (inactive)	> 100 µM (inactive)	> 100 µM (inactive)	> 100 µM (inactive)	> 100 µM (inactive)	> 100 µM (inactive)	> 100 µM (inactive)	> 100 µM (inactive)	–	–	–	> 100 µM (inactive)
Sc1nnc(/C=C/c2ccc(Cl)c(Cl)c2)[nH]1	> 100 µM (inactive)	> 100 µM (inactive)	58.5 µM (inactive)	> 100 µM (inactive)	> 100 µM (inactive)	> 100 µM (inactive)	–	> 100 µM (inactive)	77.1 µM (inactive)	0.0202 µM (active)	> 100 µM (inactive)	–	–	> 100 µM (inactive)	–	> 100 µM (inactive)	–	–	53.8 µM (inactive)	> 100 µM (inactive)
N#C/C(=C/c1ccc([N+](=O)[O-])o1)c1ccccc1	> 100 µM (inactive)	> 100 µM (inactive)	> 100 µM (inactive)	> 100 µM (inactive)	> 100 µM (inactive)	> 100 µM (inactive)	–	> 100 µM (inactive)	> 100 µM (inactive)	> 100 µM (inactive)	> 100 µM (inactive)	> 100 µM (inactive)	> 100 µM (inactive)	> 100 µM (inactive)	> 100 µM (inactive)	> 100 µM (inactive)	–	–	–	> 100 µM (inactive)
CCO/C=C1\N=C(C(Cl)c2ccccc2)OC1=O (stereo not given)	> 100 µM (inactive)	> 100 µM (inactive)	–	> 100 µM (inactive)	> 100 µM (inactive)	> 100 µM (inactive)	–	> 100 µM (inactive)	> 100 µM (inactive)	> 100 µM (inactive)	> 100 µM (inactive)	> 100 µM (inactive)	> 100 µM (inactive)	> 100 µM (inactive)	> 100 µM (inactive)	> 100 µM (inactive)	–	–	> 100 µM (inactive)	> 100 µM (inactive)
C[N+](C)(C)CC1CCCC/C1=N\OC(=O)c1ccccc1 (stereo not given)	> 100 µM (inactive)	> 100 µM (inactive)	> 100 µM (inactive)	> 100 µM (inactive)	> 100 µM (inactive)	–	–	> 100 µM (inactive)	> 100 µM (inactive)	> 100 µM (inactive)	> 100 µM (inactive)	> 100 µM (inactive)	> 100 µM (inactive)	> 100 µM (inactive)	> 100 µM (inactive)	> 100 µM (inactive)	–	–	–	> 100 µM (inactive)
COc1nc(=O)cc(N)n1C1OC(CO)C(O)C1O (stereo not given)	> 100 µM (inactive)	> 100 µM (inactive)	> 100 µM (inactive)	> 100 µM (inactive)	> 100 µM (inactive)	> 100 µM (inactive)	–	> 100 µM (inactive)	> 100 µM (inactive)	> 100 µM (inactive)	> 100 µM (inactive)	–	–	> 100 µM (inactive)	> 100 µM (inactive)	> 100 µM (inactive)	–	–	> 100 µM (inactive)	> 100 µM (inactive)
O=C(NC(Cc1c[nH]c2ccccc12)C(=O)O)/C(=C/c1ccccc1)NC(=O)c1ccccc1 (stereo not given)	> 88.7 µM (inactive)	42.7 µM (inactive)	46.8 µM (inactive)	36.4 µM (inactive)	> 100 µM (inactive)	57.5 µM (inactive)	> 44.6 µM (inactive)	> 66.4 µM (inactive)	38.4 µM (inactive)	> 100 µM (inactive)	49.4 µM (inactive)	71.1 µM (inactive)	23.9 µM (inactive)	38.2 µM (inactive)	> 95.1 µM (inactive)	> 94.8 µM (inactive)	82.4 µM (inactive)	43.8 µM (inactive)	> 81.8 µM (inactive)	–
C=C(c1ccccc1N)[C@@]1(O)C[C@H](/C(=C\C)CO)C[C@@H]1NCc1ccccc1	17.9 µM (inactive)	37.1 µM (inactive)	17.2 µM (inactive)	16.9 µM (inactive)	21.7 µM (inactive)	22.2 µM (inactive)	–	21.2 µM (inactive)	18.2 µM (inactive)	16.7 µM (inactive)	16.3 µM (inactive)	26.7 µM (inactive)	3.78 µM (inactive)	37 µM (inactive)	–	36.8 µM (inactive)	–	–	82.6 µM (inactive)	28.6 µM (inactive)
CC1(C)CC(=O)C/C(=N/c2ccc([N+](=O)[O-])cc2)C1	> 100 µM (inactive)	> 100 µM (inactive)	16.3 µM (inactive)	> 100 µM (inactive)	–	> 100 µM (inactive)	–	20.4 µM (inactive)	76.4 µM (inactive)	29.6 µM (inactive)	–	–	–	> 100 µM (inactive)	–	> 100 µM (inactive)	–	–	> 100 µM (inactive)	> 100 µM (inactive)
S=P(c1ccccc1)(c1ccccc1)C1(C2(P(=S)(c3ccccc3)c3ccccc3)CC2)CC1	–	> 100 µM (inactive)	> 100 µM (inactive)	> 100 µM (inactive)	> 100 µM (inactive)	> 100 µM (inactive)	–	> 100 µM (inactive)	–	> 100 µM (inactive)	> 100 µM (inactive)	> 100 µM (inactive)	–	> 100 µM (inactive)	–	> 100 µM (inactive)	–	–	–	> 100 µM (inactive)
COC(=O)/C1=C/C2CC(/C=C(/c3ccccc3)C(=O)O1)C2	8.53 µM (inactive)	40.3 µM (inactive)	19.7 µM (inactive)	32.9 µM (inactive)	33.7 µM (inactive)	–	–	19.5 µM (inactive)	33.2 µM (inactive)	19.1 µM (inactive)	33.3 µM (inactive)	–	–	29.9 µM (inactive)	–	26.3 µM (inactive)	–	–	–	21.5 µM (inactive)
c1ccc2c(c1)c1ccccc1c1n[se]nc21	> 100 µM (inactive)	87.9 µM (inactive)	> 100 µM (inactive)	43.9 µM (inactive)	> 100 µM (inactive)	> 100 µM (inactive)	–	> 100 µM (inactive)	–	> 100 µM (inactive)	34.6 µM (inactive)	> 100 µM (inactive)	–	52.6 µM (inactive)	36.5 µM (inactive)	31.8 µM (inactive)	–	–	19.5 µM (inactive)	> 100 µM (inactive)
O=C(CSc1nc(-c2ccccc2)c(-c2ccccc2)[nH]1)N/N=C/c1ccc(O)cc1	4.86 µM (inactive)	30.1 µM (inactive)	20.3 µM (inactive)	22.4 µM (inactive)	30.8 µM (inactive)	24.5 µM (inactive)	–	23.3 µM (inactive)	18.2 µM (inactive)	19.5 µM (inactive)	19.1 µM (inactive)	–	22.8 µM (inactive)	24.2 µM (inactive)	–	22.1 µM (inactive)	–	–	–	18.3 µM (inactive)
